Columns and labels:
[1] = system: M-Type antigen (SARS coronavirus protein antigen, ProSci); type: binding
[2] = system: E-type antigen (SARS coronavirus protein antigen, ProSci); type: binding

Substance: Ala-Ile
- M (mean value) [1]: 0.057
- M-Type Ranking [1]: 30
- E Value [2]: 0.154
- E-Type Ranking [2]: 17

Substance: Arg-Phe
- M (mean value) [1]: 0.072
- M-Type Ranking [1]: 21
- E Value [2]: 0.183
- E-Type Ranking [2]: 9

Substance: Asp-Cys
- M (mean value) [1]: 0.114
- M-Type Ranking [1]: 5
- E Value [2]: 0.238
- E-Type Ranking [2]: 5

Substance: Asp-Glu
- M (mean value) [1]: 0.169
- M-Type Ranking [1]: 2
- E Value [2]: 0.520
- E-Type Ranking [2]: 2

Substance: Asp-Ser
- M (mean value) [1]: 0.087
- M-Type Ranking [1]: 11
- E Value [2]: 0.132
- E-Type Ranking [2]: 25

Substance: Cys-Asp
- M (mean value) [1]: 0.144
- M-Type Ranking [1]: 3
- E Value [2]: 0.326
- E-Type Ranking [2]: 4

Substance: Cys-Glu
- M (mean value) [1]: 0.143
- M-Type Ranking [1]: 4
- E Value [2]: 0.356
- E-Type Ranking [2]: 3

Substance: Cys-Phe
- M (mean value) [1]: 0.069
- M-Type Ranking [1]: 24
- E Value [2]: 0.165
- E-Type Ranking [2]: 13

Substance: Gln-Trp
- M (mean value) [1]: 0.093
- M-Type Ranking [1]: 8
- E Value [2]: 0.166
- E-Type Ranking [2]: 12

Substance: Glu-Asp
- M (mean value) [1]: 0.186
- M-Type Ranking [1]: 1
- E Value [2]: 0.552
- E-Type Ranking [2]: 1

Substance: Glu-Ser
- M (mean value) [1]: 0.111
- M-Type Ranking [1]: 6
- E Value [2]: 0.198
- E-Type Ranking [2]: 6

Substance: Ile-Met
- M (mean value) [1]: 0.074
- M-Type Ranking [1]: 18
- E Value [2]: 0.139
- E-Type Ranking [2]: 22

Substance: Leu-Val
- M (mean value) [1]: 0.088
- M-Type Ranking [1]: 10
- E Value [2]: 0.147
- E-Type Ranking [2]: 21

Substance: Lys-Phe
- M (mean value) [1]: 0.080
- M-Type Ranking [1]: 14
- E Value [2]: 0.154
- E-Type Ranking [2]: 16

Substance: Phe-Arg
- M (mean value) [1]: 0.080
- M-Type Ranking [1]: 13
- E Value [2]: 0.167
- E-Type Ranking [2]: 11

Substance: Phe-Leu
- M (mean value) [1]: 0.061
- M-Type Ranking [1]: 27
- E Value [2]: 0.198
- E-Type Ranking [2]: 6

Substance: Phe-Met
- M (mean value) [1]: 0.059
- M-Type Ranking [1]: 29
- E Value [2]: 0.190
- E-Type Ranking [2]: 8

Substance: Phe-Phe
- M (mean value) [1]: 0.059
- M-Type Ranking [1]: 28
- E Value [2]: 0.116
- E-Type Ranking [2]: 29

Substance: Phe-Trp
- M (mean value) [1]: 0.071
- M-Type Ranking [1]: 22
- E Value [2]: 0.159
- E-Type Ranking [2]: 14

Substance: Phe-Tyr
- M (mean value) [1]: 0.078
- M-Type Ranking [1]: 15
- E Value [2]: 0.127
- E-Type Ranking [2]: 26

Substance: Ser-Asp
- M (mean value) [1]: 0.091
- M-Type Ranking [1]: 9
- E Value [2]: 0.136
- E-Type Ranking [2]: 23

Substance: Ser-Cys
- M (mean value) [1]: 0.087
- M-Type Ranking [1]: 12
- E Value [2]: 0.149
- E-Type Ranking [2]: 19

Substance: Ser-Glu
- M (mean value) [1]: 0.073
- M-Type Ranking [1]: 20
- E Value [2]: 0.135
- E-Type Ranking [2]: 24

Substance: Trp-Gln
- M (mean value) [1]: 0.073
- M-Type Ranking [1]: 19
- E Value [2]: 0.155
- E-Type Ranking [2]: 15

Substance: Trp-Phe
- M (mean value) [1]: 0.069
- M-Type Ranking [1]: 23
- E Value [2]: 0.148
- E-Type Ranking [2]: 20

Substance: Tyr-Gln
- M (mean value) [1]: 0.069
- M-Type Ranking [1]: 25
- E Value [2]: 0.122
- E-Type Ranking [2]: 27

Substance: Tyr-Trp
- M (mean value) [1]: 0.063
- M-Type Ranking [1]: 26
- E Value [2]: 0.090
- E-Type Ranking [2]: 30

Substance: Val-Ala
- M (mean value) [1]: 0.077
- M-Type Ranking [1]: 17
- E Value [2]: 0.118
- E-Type Ranking [2]: 28

Substance: Val-Met
- M (mean value) [1]: 0.094
- M-Type Ranking [1]: 7
- E Value [2]: 0.151
- E-Type Ranking [2]: 18

Reference: patent US20100304363A1 (E[…] TELECOMM[…] INSTITUTE, priority 2009, published 2010)
